# Data taken from PubChem BioAssay AID651862 (Vanderbilt Specialized Chemistry Center, 2012).
# pEC50: −log10 of the molar value. Active and inactive are the calls of the source.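 How the source made its calls: active means tubulin-normalized E-cadherin at least double the DMSO level by western blot, or significantly raised by in-cell western; inactive means the rest.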
# Tested on: SW620/H520 cells, E-cadherin In-Cell Western
# Experiment: CDH1 protein re-expression in cancer cells – SW620 and H520 cells, In-Cell Western (AID 651862)
SMILES,pEC50,EC50
O=C(NCCCNC(=O)c1ccc[nH]c1=O)c1cc(-c2ccccc2)on1,5.65,
O=C(NCCCNCc1cnoc1)c1cc(-c2ccccc2)on1,,12 µM (inactive)
[N-]=[N+]=Nc1nccc(NCCCNC(=O)c2cc(-c3ccccc3)on2)n1,5.59,
O=C(NCCCNCc1ccc(O)c(O)c1)c1cc(-c2ccccc2)on1,5.34,

# More lines, in order of rising pEC50, values ahead:
pEC50,EC50,SMILES
5.42,,O=C(NCCNC(=O)c1nccs1)c1cc(-c2ccccc2)on1
5.50,,N#Cc1ccc(NCCCNC(=O)c2cc(-c3ccccc3)on2)nc1
